Numbers after ± are expanded uncertainties.
Assay: activity coefficient (dimensionless); of the first substance listed, at infinite dilution; xn = mol fraction of the nth substance listed
Settings: 100 kPa, Liquid, Chromatography, x1 = 0

Row | Structure (SMILES) | activity coefficient (308.15 K) | activity coefficient (318.15 K) | activity coefficient (328.15 K) | activity coefficient (338.15 K) | activity coefficient (348.15 K) | activity coefficient (358.15 K) | activity coefficient (368.15 K)
1 | C#CCCCC [1-hexyne] + CCCC[n+]1ccc(C#N)cc1.O=S(=O)([N-]S(=O)(=O)C(F)(F)F)C(F)(F)F | 4.81 ± 0.41 | 4.91 ± 0.42 | 5.01 ± 0.43 | 5.1 ± 0.44 | 5.19 ± 0.45 | 5.28 ± 0.46 | 5.36 ± 0.46
2 | CCCO [propan-1-ol] + CCCC[n+]1ccc(C#N)cc1.O=S(=O)([N-]S(=O)(=O)C(F)(F)F)C(F)(F)F | 2.38 ± 0.21 | 2.23 ± 0.19 | 2.1 ± 0.18 | 1.98 ± 0.17 | 1.88 ± 0.16 | 1.79 ± 0.15 | 1.7 ± 0.14
3 | CCC(C)(C)OC [2-methoxy-2-methylbutane] + CCCC[n+]1ccc(C#N)cc1.O=S(=O)([N-]S(=O)(=O)C(F)(F)F)C(F)(F)F | 4.33 ± 0.37 | 4.48 ± 0.39 | 4.62 ± 0.4 | 4.76 ± 0.41 | 4.88 ± 0.42 | 5.01 ± 0.43 | 5.13 ± 0.44
4 | C1CCCCC1 [cyclohexane] + CCCC[n+]1ccc(C#N)cc1.O=S(=O)([N-]S(=O)(=O)C(F)(F)F)C(F)(F)F | 17.7 ± 1.5 | 16.3 ± 1.4 | 15.1 ± 1.3 | 14.2 ± 1.2 | 13.2 ± 1.1 | 12.4 ± 1.1 | 11.7 ± 1
5 | C=CCCCCCC [oct-1-ene] + CCCC[n+]1ccc(C#N)cc1.O=S(=O)([N-]S(=O)(=O)C(F)(F)F)C(F)(F)F | 31.7 ± 2.7 | 30.1 ± 2.6 | 28.6 ± 2.5 | 27.3 ± 2.4 | 26.3 ± 2.3 | 25.3 ± 2.2 | 24.3 ± 2.1
6 | CC(C)(C)O [2-methylpropan-2-ol] + CCCC[n+]1ccc(C#N)cc1.O=S(=O)([N-]S(=O)(=O)C(F)(F)F)C(F)(F)F | 2.28 ± 0.2 | 2.14 ± 0.18 | 2.01 ± 0.17 | 1.9 ± 0.16 | 1.8 ± 0.15 | 1.71 ± 0.15 | 1.63 ± 0.14
7 | CCCC(C)=O [pentan-2-one] + CCCC[n+]1ccc(C#N)cc1.O=S(=O)([N-]S(=O)(=O)C(F)(F)F)C(F)(F)F | 0.697 ± 0.06 | 0.739 ± 0.063 | 0.783 ± 0.066 | 0.824 ± 0.069 | 0.868 ± 0.072 | 0.909 ± 0.075 | 0.95 ± 0.078
8 | CC(C)c1ccccc1 [isopropylbenzene] + CCCC[n+]1ccc(C#N)cc1.O=S(=O)([N-]S(=O)(=O)C(F)(F)F)C(F)(F)F | 4.04 ± 0.35 | 4.13 ± 0.36 | 4.22 ± 0.36 | 4.31 ± 0.37 | 4.39 ± 0.38 | 4.47 ± 0.39 | 4.56 ± 0.39
9 | c1ccsc1 [thiophene] + CCCC[n+]1ccc(C#N)cc1.O=S(=O)([N-]S(=O)(=O)C(F)(F)F)C(F)(F)F | 0.916 ± 0.076 | 0.96 ± 0.08 | 1 ± 0.08 | 1.05 ± 0.09 | 1.1 ± 0.09 | 1.14 ± 0.09 | 1.18 ± 0.1
10 | Cc1ccccc1C [1,2-dimethylbenzene] + CCCC[n+]1ccc(C#N)cc1.O=S(=O)([N-]S(=O)(=O)C(F)(F)F)C(F)(F)F | 1.79 ± 0.15 | 1.89 ± 0.16 | 2 ± 0.17 | 2.1 ± 0.18 | 2.21 ± 0.19 | 2.3 ± 0.2 | 2.39 ± 0.21
11 | CCCCCCCCC [nonane] + CCCC[n+]1ccc(C#N)cc1.O=S(=O)([N-]S(=O)(=O)C(F)(F)F)C(F)(F)F | 92.9 ± 8 | 85.9 ± 7.4 | 79.8 ± 6.9 | 74.1 ± 6.4 | 69.4 ± 6 | 65.3 ± 5.7 | 61.5 ± 5.3
12 | C1CCCC1 [cyclopentane] + CCCC[n+]1ccc(C#N)cc1.O=S(=O)([N-]S(=O)(=O)C(F)(F)F)C(F)(F)F | 12.7 ± 1.1 | 11.6 ± 1 | 10.7 ± 0.9 | 9.97 ± 0.86 | 9.31 ± 0.8 | 8.69 ± 0.75 | 8.14 ± 0.7
13 | C=C(C)c1ccccc1 [(1-methylethenyl)benzene] + CCCC[n+]1ccc(C#N)cc1.O=S(=O)([N-]S(=O)(=O)C(F)(F)F)C(F)(F)F | 1.94 ± 0.17 | 2.09 ± 0.18 | 2.24 ± 0.19 | 2.4 ± 0.21 | 2.55 ± 0.22 | 2.7 ± 0.23 | 2.86 ± 0.25
14 | CCCc1ccccc1 [propylbenzene] + CCCC[n+]1ccc(C#N)cc1.O=S(=O)([N-]S(=O)(=O)C(F)(F)F)C(F)(F)F | 3.8 ± 0.33 | 3.94 ± 0.34 | 4.07 ± 0.35 | 4.21 ± 0.36 | 4.33 ± 0.37 | 4.45 ± 0.38 | 4.58 ± 0.4
15 | CCO [ethanol] + CCCC[n+]1ccc(C#N)cc1.O=S(=O)([N-]S(=O)(=O)C(F)(F)F)C(F)(F)F | 1.86 ± 0.16 | 1.74 ± 0.15 | 1.64 ± 0.14 | 1.55 ± 0.13 | 1.47 ± 0.12 | 1.39 ± 0.12 | 1.33 ± 0.11
